Measured values reported in publication PMC10819771 (Pharmaceuticals, 2023).
Like-named read-outs stand apart in the source and are kept apart here.

Key:
FdxT = assay: FRET-melting, duplex control FdxT; format: binding; details: ligand 2 μM, DNA 0.2 μM, 10 mM KCl, 90 mM LiCl, pH 7.2, hairpin duplex
Procedure: (§1) FRET-melting experiments were conducted on a Stratagene MX3005P (Thermo Fisher Scientific, Illkirch-Graffenstaden, France) real-time PCR equipment in 96-well plates on the DNA sequences reported in Table 4. Experiments were performed in 10 mM lithium cacodylate buffer (pH 7.2) and either 10 mM KCl and 90 mM LiCl (FK-RAST, FBCL-2T, F21T, and FdxT) or 1 mM KCl and 99 mM LiCl (Fc-MYCT) concentrations, depending on the Tm of the G4s alone. The DNA concentration was 0.2 µM. […] Data are presented as an average of three independent measurements, each conducted in duplicate conditions (λexc = 492 nm, λem = 516 nm, T interval = 25–95 °C, ramp: 25 °C for 5 min, then 1 °C/min, measurements every 1 °C, 8× magnification of the fluorescence signal).

K562 = assay: MTS cell proliferation assay, K562; format: cell-based, human; details: MTS, 3-day incubation, leukemia cells, read-out: IC50 Values (μM) ± SEM K562
Procedure: The human leukemic cell line K562 was grown in RPMI 1640 medium (Life Technology-Invitrogen by Thermo Fisher Scientific, Saint-Aubin, France) supplemented with 10% fetal calf serum (FCS), antibiotics (100 U/mL penicillin, 100 µg/mL streptomycin), and L-glutamine, (Eurobio, Les Ulis, France) at 37 °C, 5% CO2 in air. The MTS cell proliferation assay (Promega, Charbonnières-les-Bains, France) is a colorimetric assay system, which measures the transformation of a tetrazolium component (MTS) into formazan produced by the mitochondria of viable cells. Cells were washed twice in PBS (Phosphate Buffer Saline) and plated in quadruplicate into microtiter-plate wells in 100 μL culture media with or without our various compounds at increasing concentrations (0, 1, 5, 10, 20, and 50 μM) for 1, 2, and 3 days. After 3 h of incubation at 37 °C with 20 μL MTS/well, the plates were read using an ELISA microplate reader (Thermo, Electrocorporation, Waltham, MA, USA) at 490 nm. The amount of color produced was directly proportional to the number of viable cells. The results are expressed as the concentrations inhibiting cell growth by 50% after a 3-day incubation period. The 50% cytotoxic concentrations (CC50) were determined by linear regression analysis, expressed in μM ± SD (Microsoft Excel).

MDA-MB-231 = assay: MTT antiproliferative assay, MDA-MB-231; format: cell-based, human; details: MTT, 72 h, breast cancer cells, read-out: IC50 Values (μM) ± SEM MDA-MB-231
Procedure: (§2) The growth-inhibitory effects of the compounds were determined by MTT (3-(4,5-dimethylthiazol-2-yl)-2,5-diphenyltetrazolium bromide) assay on selected cell lines, including HeLa and SiHa (cervical cancers), MDA-MB-231 and MCF-7 (breast cancers), and A2780 ovarian cancer cells. All cell lines were purchased from the European Collection of Cell Cultures (Salisbury, UK) except SiHa, which was obtained from the American Tissue Culture Collection (Manassas, VA, USA). The cells were kept in minimum essential medium supplemented with 10% fetal bovine serum, 1% non-essential amino acids, and 1% penicillin-streptomycin-amphotericin-B at 37 °C in a humidified atmosphere containing 5% CO2. Media and supplements were obtained from Lonza Group Ltd., (Basel, Switzerland). Cancer cells were seeded onto 96-well plates (5000 cells/well), after an overnight incubation the test compounds were added in six concentrations (0.1, 0.3, 1.0, 3.0, 10.0, 30.0 µM) and incubated for 72 h under cell-culture condition. After the incubation, 20 μL of 5 mg/mL MTT solution was added to each well and incubated for a further 4 h. The medium was removed, and the precipitated formazan crystals were dissolved in DMSO for 30 min under shaking at 37 °C. The absorbance was measured at 545 nm with a microplate reader. Untreated cells were included as controls. Calculations were performed by means of the GraphPad Prism 5.01 software (GraphPad Software Inc., San Diego, CA, USA). At least two independent determinations were performed with 5 parallel wells for each condition.

HeLa = assay: MTT antiproliferative assay, HeLa; format: cell-based, human; details: MTT, 72 h, cervical cancer cells, read-out: IC50 Values (μM) ± SEM HeLa
Procedure: as §2

MCF-7 = assay: MTT antiproliferative assay, MCF-7; format: cell-based, human; details: MTT, 72 h, breast cancer cells, read-out: IC50 Values (μM) ± SEM MCF-7
Procedure: as §2

A2780 = assay: MTT antiproliferative assay, A2780; format: cell-based, human; details: MTT, 72 h, ovarian cancer cells, read-out: IC50 Values (μM) ± SEM A2780
Procedure: as §2

Fc-MYCT = assay: FRET-melting, Fc-MYCT; format: binding; details: ligand 2 μM, DNA 0.2 μM, K+ conditions, pH 7.2
Procedure: as §1

SiHa = assay: MTT antiproliferative assay, SiHa; format: cell-based, human; details: MTT, 72 h, cervical cancer cells, read-out: IC50 Values (μM) ± SEM SiHa
Procedure: as §2

FBCL-2T = assay: FRET-melting, FBCL-2T; format: binding; details: ligand 2 μM, DNA 0.2 μM, 10 mM KCl, 90 mM LiCl, pH 7.2
Procedure: as §1

FK-RAST = assay: FRET-melting, FK-RAST; format: binding; details: ligand 2 μM, DNA 0.2 μM, 10 mM KCl, 90 mM LiCl, pH 7.2
Procedure: as §1

[1] = system: human telomeric sequence F21T; assay: FRET-melting, F21T; format: binding; details: ligand 2 μM, DNA 0.2 μM, 10 mM KCl, 90 mM LiCl, pH 7.2
Procedure: as §1

Row | Molecule | ΔT1/2 (°C) FdxT (FdxT) [°C] | IC50 (K562; Homo sapiens, K562, 72 h) [µM] | IC50 (MDA-MB-231; Homo sapiens, MDA-MB-231, 72 h) [µM] | IC50 (HeLa; Homo sapiens, HeLa) [µM] | IC50 (MCF-7; Homo sapiens, MCF7, 72 h) [µM] | IC50 (MCF-7) [µM] | IC50 (A2780; Homo sapiens, A2780) [µM] | ΔT1/2 (°C) Fc-MYCT (Fc-MYCT) [°C] | IC50 (SiHa; Homo sapiens, SiHa) [µM] | ΔT1/2 (°C) FBCL-2T (FBCL-2T) [°C] | ΔT1/2 (°C) FK-RAST (FK-RAST) [°C] | IC50 (K562) [µM] | IC50 (MDA-MB-231) [µM] | IC50 (HeLa) [µM] | ΔT1/2 (°C) F21T [1] [°C] | IC50 (A2780) [µM] | IC50 (SiHa) [µM]
1 | CN(C)CCCNCc1ccc(-c2nc(-c3ccc(CNCCCN(C)C)cc3)c3cccc(-c4ccccc4)c3n2)cc1 [Compound 12k, 2,4-bis{4-[(3-dimethylaminopropyl)aminomethyl]phenyl}-8-phenylquinazoline] | 0.8 ± 0.1 | 7 ± 0.1 | 1.36 ± 0.06 | 1.19 ± 0.24 | 1.12 to 1.24 | 1.24 ± 0.14 | 1.34 ± 0.14 | 9.9 ± 1.4 | 1.01 ± 0.27 | 9.5 ± 0.2 | 13.0 ± 0.4 |  |  |  |  |  | 
2 | CC1CN(CCCNCc2ccc(-c3nc(-c4ccc(CNCCCN5CCNC(C)C5)cc4)c4cccc(-c5ccccc5)c4n3)cc2)CCN1 (stereo not drawn) [Compound 12m, 2,4-bis{4-[(4-(3-methylpiperazin-1-yl)propyl)aminomethyl]phenyl}-8-phenylquinazoline] | 2.2 ± 0.2 |  |  |  |  | 1.22 ± 0.19 |  | 14.6 ± 0.9 |  | 15.5 ± 0.3 | 18.2 ± 0.6 | 7 ± 0.2 | 2 ± 0.45 | 1.17 ± 0.23 | 23.3 ± 0.7 | 2.1 ± 0.48 | 0.88 ± 0.14
3 | CN(C)CCCCNCc1ccc(-c2nc(-c3ccc(CNCCCCN(C)C)cc3)c3cc(-c4ccccc4)ccc3n2)cc1 [Compound 12c, 2,4-bis{4-[(4-dimethylaminobutyl)aminomethyl]phenyl}-6-phenylquinazoline] | 3.8 ± 0.8 | 7 ± 0.2 | 1.07 ± 0.42 | 2.21 ± 0.86 | 1.44 ± 0.03 |  | 2.04 ± 0.54 | 17.7 ± 0.8 | 0.76 ± 0.01 | 16.4 ± 0.4 | 24.5 ± 0.7 |  |  |  | 28.0 ± 0.4 |  | 
4 | CN1CCN(CCCCNCc2ccc(-c3nc(-c4ccc(CNCCCCN5CCN(C)CC5)cc4)c4cccc(-c5ccccc5)c4n3)cc2)CC1 [Compound 12n, 2,4-bis{4-[(4-(4-methylpiperazin-1-yl)butyl)aminomethyl]phenyl}-8-phenylquinazoline] | 2.4 ± 0.7 | 14 ± 0.3 | 3.94 ± 0.54 | 3.51 ± 0.17 | 4.17 ± 0.5 |  | 7.1 ± 1.15 | 17.0 ± 2.0 | 1.89 ± 0.74 | 12.0 ± 2.0 | 18.0 ± 2.5 |  |  |  | 20.7 ± 3.1 |  | 
5 | 2,4-bis{4-[(4-(3-methylpiperazin-1-yl)propyl)aminomethyl]phenyl}-6-phenylquinazoline [Compound 12d] | 0.5 ± 0.3 |  |  |  |  | 1.01 ± 0.3 |  | 8.4 ± 0.9 |  | 9.7 ± 0.06 | 15.5 ± 0.5 | 17 ± 0.4 | 1.44 ± 0.17 | 1.32 ± 0.02 | 15.8 ± 1.2 | 1.74 ± 0.11 | 1.28 ± 0.27
6 | CN(C)CCCCNCc1ccc(-c2cc(-c3ccc(CNCCCCN(C)C)cc3)c3cc(-c4ccccc4)ccc3n2)cc1 [Compound 13b, 2,4-bis{4-[(4-dimethylaminobutyl)aminomethyl]phenyl}-6-phenylquinoline] | 1.5 ± 0.6 | 13 ± 0.4 | 3.68 ± 0.8 | 3.58 ± 0.18 | 3.03 ± 0.64 |  | 6.49 ± 1.76 | 13.8 ± 3.0 | 1.76 ± 0.61 | 11.1 ± 2.6 | 19.6 ± 3.5 |  |  |  | 13.6 ± 2.9 |  | 
7 | CN(C)CCCCNCc1ccc(-c2nc(-c3ccc(CNCCCCN(C)C)cc3)c3cccc(-c4ccccc4)c3n2)cc1 [Compound 12l, 2,4-bis{4-[(4-dimethylaminobutyl)aminomethyl]phenyl}-8-phenylquinazoline] | 2.9 ± 0.2 | 7 ± 0.2 | 1.55 ± 0.12 | 1.39 ± 0.16 | 1.45 ± 0.02 |  | 2.08 ± 0.48 | 14.2 ± 1.1 | 1.14 ± 0.51 | 17.2 ± 1.2 | 18.7 ± 0.8 |  |  |  | 24.9 ± 0.3 |  | 
8 | CC1CN(CCCNCc2ccc(-c3cc(-c4ccc(CNCCCN5CCNC(C)C5)cc4)c4cc(-c5ccccc5)ccc4n3)cc2)CCN1 (stereo not drawn) [Compound 13c, 2,4-bis{4-[(4-(3-methylpiperazin-1-yl)propyl)aminomethyl]phenyl}-6-phenylquinoline] | 0.1 ± 0.2 |  |  |  |  | 0.86 ± 0.38 |  | 6.8 ± 1.4 |  | 7.5 ± 0.5 | 14.5 ± 0.8 | 34 ± 0.7 | 1.33 ± 0.13 | 1.3 ± 0.06 | 11.3 ± 0.9 | 1.58 ± 0.1 | 1.45 ± 0.13
9 | CN(C)CCCCCNCc1ccc(-c2nc(-c3ccc(CNCCCCCN(C)C)cc3)c3ccc(-c4ccccc4)cc3n2)cc1 [Compound 12h, 2,4-bis{4-[(5-dimethylaminopentyl)aminomethyl]phenyl}-7-phenylquinazoline] | 2.7 ± 1.0 | 13 ± 0.2 | 1.1 ± 0.38 | 2.31 ± 0.76 | 1.19 ± 0.27 |  | 1.43 ± 0.07 | 18.7 ± 0.2 | 0.75 ± 0.01 | 18.2 ± 1.7 | 28.6 ± 2.1 |  |  |  | 28.1 ± 2.3 |  | 
